Laboratory results from ChEMBL document CHEMBL3885881, “DrugMatrix”.

Species: Rattus norvegicus
Experiment: DrugMatrix - Regimen: Daily Repeat
Type: toxicity, organism-based, Sprague-Dawley
Set-up: regimen Daily Repeat, gender Male, age 6-8 weeks
Conditions: in vivo, po, route oral GAVAGE, vehicle .5 % CMC; for BASOPHIL / EOSINOPHIL / ERYTHROCYTE COUNT / HEMATOCRIT / HEMOGLOBIN / LEUKOCYTE COUNT / LYMPHOCYTE / MEAN CORPUSCULAR HEMOGLOBIN / MEAN CORPUSCULAR HEMOGLOBIN CONCENTRATION / MEAN CORPUSCULAR VOLUME / MONOCYTE / NEUTROPHIL / PLATELET COUNT: tissue Blood; for ALANINE AMINOTRANSFERASE / ALBUMIN / ALKALINE PHOSPHATASE / ASPARTATE AMINOTRANSFERASE / BLOOD UREA NITROGEN / CARBON DIOXIDE / CHLORIDE / CHOLESTEROL / CREATINE PHOSPHOKINASE / CREATININE / GLUCOSE / LACTATE DEHYDROGENASE / LIPASE / PHOSPHORUS / POTASSIUM / SODIUM / TOTAL BILIRUBIN / TOTAL PROTEIN / URIC ACID: tissue Plasma
[1] = 0 mg/kg, 96 h, dose level Control, time 4 day
[2] = 0 mg/kg, […], dose level Control, time 6 day
[3] = 0 mg/kg, […], dose level Control, time 14 day
[4] = […], 96 h, dose 4.6 mg/Kg, dose level High, time 4 day
[5] = […], dose 4.6 mg/Kg, dose level High, time 6 day
[6] = […], dose 4.6 mg/Kg, dose level High, time 14 day

COc1ccc(C(=O)Nc2c(Cl)c[n+]([O-])cc2Cl)c2ccc(C(F)(F)F)nc12 [SCH-351591]
BASOPHIL [1]: 0.5% | EOSINOPHIL [1]: 1.85% | ERYTHROCYTE COUNT [1]: 6.99 x10E6/uL | HEMATOCRIT [1]: 43.82% | HEMOGLOBIN [1]: 13.87 G/DL | LEUKOCYTE COUNT [1]: 12.01 x10E3/uL | LYMPHOCYTE [1]: 82.07% | MEAN CORPUSCULAR HEMOGLOBIN [1]: 19.8 pg | MEAN CORPUSCULAR HEMOGLOBIN CONCENTRATION [1]: 31.63 G/DL | MEAN CORPUSCULAR VOLUME [1]: 62.7 fL | MONOCYTE [1]: 2.6% | NEUTROPHIL [1]: 12.38% | PLATELET COUNT [1]: 1155 x10E3/uL | ALANINE AMINOTRANSFERASE [1]: 31.67 u/L | ALBUMIN [1]: 4.12 G/DL | ALKALINE PHOSPHATASE [1]: 396 u/L | ASPARTATE AMINOTRANSFERASE [1]: 75.67 u/L | BLOOD UREA NITROGEN [1]: 17.5 mg/dL | CARBON DIOXIDE [1]: 28.83 mmol/L | CHLORIDE [1]: 103.83 MEQ/L | CHOLESTEROL [1]: 84.83 mg/dL | CREATINE PHOSPHOKINASE [1]: 597.17 u/L | CREATININE [1]: 0.3 mg/dL | GLUCOSE [1]: 161.5 mg/dL | LACTATE DEHYDROGENASE [1]: 138.67 u/L | LIPASE [1]: 11.5 u/L | PHOSPHORUS [1]: 11.58 mg/dL | POTASSIUM [1]: 6.87 MEQ/L | SODIUM [1]: 146.83 MEQ/L | TOTAL BILIRUBIN [1]: 0.38 mg/dL | TOTAL PROTEIN [1]: 6.33 G/DL | URIC ACID [1]: 1.37 mg/dL | BASOPHIL [2]: 0.37% | EOSINOPHIL [2]: 0.38% | ERYTHROCYTE COUNT [2]: 6.89 x10E6/uL | HEMATOCRIT [2]: 47.38% | HEMOGLOBIN [2]: 14.8 G/DL | LEUKOCYTE COUNT [2]: 13.59 x10E3/uL | LYMPHOCYTE [2]: 80.27% | MEAN CORPUSCULAR HEMOGLOBIN [2]: 21.52 pg | MEAN CORPUSCULAR HEMOGLOBIN CONCENTRATION [2]: 31.22 G/DL | MEAN CORPUSCULAR VOLUME [2]: 68.83 fL | MONOCYTE [2]: 2.78% | NEUTROPHIL [2]: 15.65% | PLATELET COUNT [2]: 1330.17 x10E3/uL | BASOPHIL [3]: 0.38% | EOSINOPHIL [3]: 0.6% | ERYTHROCYTE COUNT [3]: 7.78 x10E6/uL | HEMATOCRIT [3]: 48.3% | HEMOGLOBIN [3]: 15.42 G/DL | LEUKOCYTE COUNT [3]: 13.55 x10E3/uL | LYMPHOCYTE [3]: 81.18% | MEAN CORPUSCULAR HEMOGLOBIN [3]: 19.8 pg | MEAN CORPUSCULAR HEMOGLOBIN CONCENTRATION [3]: 31.92 G/DL | MEAN CORPUSCULAR VOLUME [3]: 62.08 fL | MONOCYTE [3]: 1.72% | NEUTROPHIL [3]: 15.17% | PLATELET COUNT [3]: 1083.83 x10E3/uL | ALANINE AMINOTRANSFERASE [2]: 36 u/L | ALBUMIN [2]: 4.03 G/DL | ALKALINE PHOSPHATASE [2]: 354.17 u/L | ASPARTATE AMINOTRANSFERASE [2]: 76.5 u/L | BLOOD UREA NITROGEN [2]: 19.33 mg/dL | CARBON DIOXIDE [2]: 27.83 mmol/L | CHLORIDE [2]: 105.5 MEQ/L | CHOLESTEROL [2]: 68.83 mg/dL | CREATINE PHOSPHOKINASE [2]: 383.83 u/L | CREATININE [2]: 0.35 mg/dL | GLUCOSE [2]: 165.83 mg/dL | LACTATE DEHYDROGENASE [2]: 155.17 u/L | LIPASE [2]: 9.83 u/L | PHOSPHORUS [2]: 12.4 mg/dL | POTASSIUM [2]: 6.9 MEQ/L | SODIUM [2]: 147.33 MEQ/L | TOTAL BILIRUBIN [2]: 0.52 mg/dL | TOTAL PROTEIN [2]: 6.42 G/DL | URIC ACID [2]: 1.6 mg/dL | ALANINE AMINOTRANSFERASE [3]: 36.83 u/L | ALBUMIN [3]: 4.13 G/DL | ALKALINE PHOSPHATASE [3]: 328.17 u/L | ASPARTATE AMINOTRANSFERASE [3]: 74.83 u/L | BLOOD UREA NITROGEN [3]: 18.67 mg/dL | CARBON DIOXIDE [3]: 29.33 mmol/L | CHLORIDE [3]: 105.17 MEQ/L | CHOLESTEROL [3]: 72 mg/dL | CREATINE PHOSPHOKINASE [3]: 217.67 u/L | CREATININE [3]: 0.45 mg/dL | GLUCOSE [3]: 151.17 mg/dL | LACTATE DEHYDROGENASE [3]: 133.17 u/L | LIPASE [3]: 14.5 u/L | PHOSPHORUS [3]: 11.55 mg/dL | POTASSIUM [3]: 6.77 MEQ/L | SODIUM [3]: 149.33 MEQ/L | TOTAL BILIRUBIN [3]: 0.37 mg/dL | TOTAL PROTEIN [3]: 6.62 G/DL | URIC ACID [3]: 1.57 mg/dL | BASOPHIL [4]: 0.27% | EOSINOPHIL [4]: 1.13% | ERYTHROCYTE COUNT [4]: 6.53 x10E6/uL | HEMATOCRIT [4]: 40.97% | HEMOGLOBIN [4]: 13.13 G/DL | LEUKOCYTE COUNT [4]: 18.12 x10E3/uL | LYMPHOCYTE [4]: 79.83% | MEAN CORPUSCULAR HEMOGLOBIN [4]: 20.13 pg | MEAN CORPUSCULAR HEMOGLOBIN CONCENTRATION [4]: 32.1 G/DL | MEAN CORPUSCULAR VOLUME [4]: 62.73 fL | MONOCYTE [4]: 2.33% | NEUTROPHIL [4]: 15.77% | PLATELET COUNT [4]: 1324.67 x10E3/uL | ALANINE AMINOTRANSFERASE [4]: 40.33 u/L | ALBUMIN [4]: 3.93 G/DL | ALKALINE PHOSPHATASE [4]: 341 u/L | ASPARTATE AMINOTRANSFERASE [4]: 77 u/L | BLOOD UREA NITROGEN [4]: 21.33 mg/dL | CARBON DIOXIDE [4]: 23.33 mmol/L | CHLORIDE [4]: 105 MEQ/L | CHOLESTEROL [4]: 88 mg/dL | CREATINE PHOSPHOKINASE [4]: 540.67 u/L | CREATININE [4]: 0.4 mg/dL | GLUCOSE [4]: 177 mg/dL | LACTATE DEHYDROGENASE [4]: 256 u/L | LIPASE [4]: 18 u/L | PHOSPHORUS [4]: 12.67 mg/dL | POTASSIUM [4]: 6.37 MEQ/L | SODIUM [4]: 146.33 MEQ/L | TOTAL BILIRUBIN [4]: 0.37 mg/dL | TOTAL PROTEIN [4]: 6.23 G/DL | URIC ACID [4]: 1.67 mg/dL | BASOPHIL [5]: 0.33% | EOSINOPHIL [5]: 0.37% | ERYTHROCYTE COUNT [5]: 7.26 x10E6/uL | HEMATOCRIT [5]: 48.6% | HEMOGLOBIN [5]: 14.77 G/DL | LEUKOCYTE COUNT [5]: 20.98 x10E3/uL | LYMPHOCYTE [5]: 75.93% | MEAN CORPUSCULAR HEMOGLOBIN [5]: 20.37 pg | MEAN CORPUSCULAR HEMOGLOBIN CONCENTRATION [5]: 30.33 G/DL | MEAN CORPUSCULAR VOLUME [5]: 67.07 fL | MONOCYTE [5]: 2.13% | NEUTROPHIL [5]: 19.93% | PLATELET COUNT [5]: 1217.67 x10E3/uL | BASOPHIL [6]: 0.38% | EOSINOPHIL [6]: 0.52% | ERYTHROCYTE COUNT [6]: 7.4 x10E6/uL | HEMATOCRIT [6]: 46.48% | HEMOGLOBIN [6]: 14.82 G/DL | LEUKOCYTE COUNT [6]: 23.35 x10E3/uL | LYMPHOCYTE [6]: 67.1% | MEAN CORPUSCULAR HEMOGLOBIN [6]: 20.06 pg | MEAN CORPUSCULAR HEMOGLOBIN CONCENTRATION [6]: 31.86 G/DL | MEAN CORPUSCULAR VOLUME [6]: 62.92 fL | MONOCYTE [6]: 1.96% | NEUTROPHIL [6]: 28.36% | PLATELET COUNT [6]: 1247.4 x10E3/uL | ALANINE AMINOTRANSFERASE [5]: 24.33 u/L | ALBUMIN [5]: 3.9 G/DL | ALKALINE PHOSPHATASE [5]: 313.33 u/L | ASPARTATE AMINOTRANSFERASE [5]: 61.33 u/L | BLOOD UREA NITROGEN [5]: 17.67 mg/dL | CARBON DIOXIDE [5]: 25.67 mmol/L | CHLORIDE [5]: 108.33 MEQ/L | CHOLESTEROL [5]: 80.67 mg/dL | CREATINE PHOSPHOKINASE [5]: 190.33 u/L | CREATININE [5]: 0.47 mg/dL | GLUCOSE [5]: 161 mg/dL | LACTATE DEHYDROGENASE [5]: 82 u/L | LIPASE [5]: 43.33 u/L | PHOSPHORUS [5]: 12.93 mg/dL | POTASSIUM [5]: 6.5 MEQ/L | SODIUM [5]: 149.33 MEQ/L | TOTAL BILIRUBIN [5]: 0.43 mg/dL | TOTAL PROTEIN [5]: 6.13 G/DL | URIC ACID [5]: 1.47 mg/dL | ALANINE AMINOTRANSFERASE [6]: 34.6 u/L | ALBUMIN [6]: 3.96 G/DL | ALKALINE PHOSPHATASE [6]: 330.4 u/L | ASPARTATE AMINOTRANSFERASE [6]: 65.6 u/L | BLOOD UREA NITROGEN [6]: 21 mg/dL | CARBON DIOXIDE [6]: 26.2 mmol/L | CHLORIDE [6]: 106.4 MEQ/L | CHOLESTEROL [6]: 70 mg/dL | CREATINE PHOSPHOKINASE [6]: 225.2 u/L | CREATININE [6]: 0.48 mg/dL | GLUCOSE [6]: 157.4 mg/dL | LACTATE DEHYDROGENASE [6]: 185.6 u/L | LIPASE [6]: 29.2 u/L | PHOSPHORUS [6]: 11.86 mg/dL | POTASSIUM [6]: 6.36 MEQ/L | SODIUM [6]: 149.8 MEQ/L | TOTAL BILIRUBIN [6]: 0.38 mg/dL | TOTAL PROTEIN [6]: 6.36 G/DL | URIC ACID [6]: 1.84 mg/dL
